In the METLIN SMRT retention time set (Domingo-Almenara et al. 2019):

Experiment: gradient 5% acetonitrile 3 min, to 50% in 2 min, to 85% in 15 min, held 3 min, 100 µL/min
Settings: column: Zorbax Extend-C18 2.1 x 50 mm; eluents: water / acetonitrile, 0.1% formic acid
In short: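 The system's dead and dwell volumes were 40 μL and 900 μL, with a Zorbax Extend-C18 column (2.1 × 50 mm, 1.8 μm) run at 100 μL/min in water and acetonitrile containing 0.1% formic acid each. Pure standards were analyzed in mixtures of ~100 molecules by HPLC–quadrupole time-of-flight mass spectrometry in positive and negative ionization mode. Retention time was assigned from computationally picked, manually inspected adduct peaks.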

Work on `COc1ccc(-c2cc3nn(CC(=O)Nc4ccc(C)c(C)c4)c(=O)n3c(C)n2)cc1` yielded an RP-LC retention time of 980 s.
With `Cn1nccc1C(=O)Nc1sccc1-c1nc2ccccc2s1` the RP-LC retention time was 1280 s.
For `O=C(NC1CCCCC1)c1cccn1Cc1noc(-c2ccccc2)n1`, the RP-LC retention time was 1070 s.
`CCOC(=O)c1ccc(NC(=O)Cn2c(=O)cc(-c3nc(C)no3)c3ccccc32)cc1` showed an RP-LC retention time of 903 s.
Compound `CCCCN(C)C(=O)C1CCN(c2cncnc2N(C)C)CC1` has an RP-LC retention time of 611 s.
Work on `Cc1ccc(CC(=O)Nc2ccc3c(c2)CCC(=O)N3)cc1` yielded an RP-LC retention time of 708 s.
Work on `CCOc1ccccc1-c1nc(-c2ccc3nnn(CC)c3c2)no1` yielded an RP-LC retention time of 1110 s.
In the case of `O=c1cccnn1CCNS(=O)(=O)c1ccc(F)c(Cl)c1`, the RP-LC retention time is reported as 665 s.
`Cn1c(=O)n(C2CCCN(C(=O)Cc3ccccc3)C2)c2ncncc21` (stereo not given) gave an RP-LC retention time of 668 s.
In the case of `O=C(CSc1ccc(N2CCCC(C(=O)NC3CC3)C2)nn1)Nc1ccc(F)c(F)c1` (stereo not given), the RP-LC retention time is reported as 680 s.
In the case of `Cc1ccc(-c2nc3cnccn3c2NCCC(=O)NC2CC2)cc1`, the RP-LC retention time is reported as 616 s.
For `CCc1cccc(NS(=O)(=O)c2ccc3c(c2)CCCC(=O)N3)c1`, the RP-LC retention time was 780 s.
Work on `Cc1ccc(-c2cc(C(=O)NCC(C)C)n(C)c2)cc1` yielded an RP-LC retention time of 1070 s.
Compound `O=C(NC1CC1)c1ccccc1OCC1CCCN(Cc2cn[nH]c2-c2cccs2)C1` (stereo not given) has an RP-LC retention time of 615 s.
Work on `O=C(NCCc1c[nH]c2ccc(Cl)cc12)c1ccc(F)cc1-n1cnnn1` yielded an RP-LC retention time of 805 s.
`Cc1cccc(NS(=O)(=O)c2cc3n(c2)CCN(C(C)C)C3=O)c1C` showed an RP-LC retention time of 816 s.
`O=C(Cn1nc(Cc2cccnc2)c2ccccc2c1=O)NCCC1=CCCCC1` showed an RP-LC retention time of 663 s.
Work on `COC(=O)c1ccc(NC(=O)C(=O)NCC(O)c2sccc2C)cc1` (stereo not given) yielded an RP-LC retention time of 707 s.
Work on `O=C(Cn1ncc2c(c1=O)N(C1CC1)C(=O)CS2)Nc1ccc2c(c1)OCCO2` yielded an RP-LC retention time of 693 s.
With `CCCN(CCc1ccccc1)C1CCc2c(O)cccc2C1` (stereo not given) the RP-LC retention time was 768 s.
In the case of `CCc1noc(C2(NC(=O)c3ccc(Br)cc3)CCCCC2)n1`, the RP-LC retention time is reported as 1030 s.
`CC1Oc2ccc(S(=O)(=O)N3CCC(C(=O)N(C)C4CCCCC4)CC3)cc2NC1=O` (stereo not given) showed an RP-LC retention time of 858 s.
`CN(CC(=O)N1CCN(Cc2ccccc2)CC1)S(=O)(=O)c1ccc2c(c1)CCCC(=O)N2` gave an RP-LC retention time of 600 s.
Compound `COc1ccc(CNC(=O)c2cn3ccccc3n2)c(OC)c1` has an RP-LC retention time of 658 s.
Compound `Cn1cnnc1SCC(=O)N1CCc2ccccc21` has an RP-LC retention time of 604 s.
Work on `O=C(NCc1cc(F)cc(F)c1)C1CCN(c2cc(N3CCSCC3)ncn2)CC1` yielded an RP-LC retention time of 679 s.
`COC(=O)c1c(-c2ccc(Cl)cc2)noc1N1CCN(C(=O)c2ccco2)CC1` gave an RP-LC retention time of 978 s.
Compound `CC(C)(C)n1nc2c(c1NC(=O)c1nc3ccccc3s1)CSC2` has an RP-LC retention time of 952 s.
In the case of `COc1ccc(Nc2c(-c3ccc(OC)c(OC)c3)nc3cnccn23)cc1OC`, the RP-LC retention time is reported as 672 s.
Compound `O=C(c1ccoc1)N1CCC2(CC1)N=C(c1ccc(Cl)cc1)NO2` has an RP-LC retention time of 774 s.
With `O=C(NCc1ccc(F)cc1)N1CCC(n2c(-c3ccco3)nc3cccnc32)C1` (stereo not given) the RP-LC retention time was 730 s.
With `CCN1C(=O)C2CCCCN2c2ccc(C(=O)N3CCN(c4ccccc4)CC3)cc21` (stereo not given) the RP-LC retention time was 974 s.
`O=C(NCC(c1ccsc1)N1CCc2ccccc2C1)c1cccs1` (stereo not given) showed an RP-LC retention time of 569 s.
With `Cn1cnc(S(=O)(=O)N2CCC(Cc3nncn3-c3ccccc3)CC2)c1` the RP-LC retention time was 629 s.
Work on `CCn1nccc1C(=O)N1CCCN(C2=NS(=O)(=O)C(c3ccc(F)cc3)=C2C)CC1` yielded an RP-LC retention time of 737 s.
Compound `CCCCN1CCN(C(=O)c2cc(NC(=O)C3CCC3)cc3nc(C)ccc23)CC1` has an RP-LC retention time of 551 s.
In the case of `CCCN1C(=O)COc2cc(-c3noc(C(=O)N4CCCC4)n3)ccc21`, the RP-LC retention time is reported as 885 s.
In the case of `O=C(NCCc1csc(-c2cccs2)n1)C1CCN(C(=O)C2CCCC2)CC1`, the RP-LC retention time is reported as 782 s.
For `CCC(C)NC(=O)N1CCc2c(c(-c3nc(Cc4ccccc4)no3)nn2C)C1` (stereo not given), the RP-LC retention time was 870 s.
`CN1CCC2(CC1)CN(C(=O)Nc1ccccc1)Cc1ccccc1O2` showed an RP-LC retention time of 637 s.
Work on `CCn1nc(C)c(CCNC(=O)c2ccc3nc(C(C)C)oc3c2)c1C` yielded an RP-LC retention time of 662 s.
`CCOc1ccc(-c2noc(Cc3nc(-c4cccc(OC)c4)cs3)n2)cc1` gave an RP-LC retention time of 1230 s.
In the case of `CCNc1cc(N2CCC(CCC(=O)NCc3ccc(C)o3)CC2)ncn1`, the RP-LC retention time is reported as 642 s.
Work on `O=C(NCCCc1ccccc1)c1nnc(-c2ccc(S(=O)(=O)N3CCOCC3)cc2)o1` yielded an RP-LC retention time of 911 s.
Compound `CC(C)C(=O)Nc1ccc(-n2cnc(C(=O)NCC3CCCO3)c2)nc1` (stereo not given) has an RP-LC retention time of 647 s.
`COc1ccccc1N1CCN(C(=O)c2sc3ncccc3c2-n2cccc2)CC1` gave an RP-LC retention time of 963 s.
In the case of `Cc1ccc(C)c(N2CCN(C(=O)c3cnc4ncnn4c3C)CC2)c1`, the RP-LC retention time is reported as 829 s.
Work on `CCC(=O)N1CCc2cc(C(=O)N3CCN(c4ccc(C(C)=O)cc4)CC3)ccc21` yielded an RP-LC retention time of 736 s.
`Cn1nc(-c2nc(C3CC3)no2)c2c1CCN(C(=O)Nc1ccccc1)C2` gave an RP-LC retention time of 809 s.
Work on `O=S(=O)(Nc1nc2ccc(S(=O)(=O)N3CCCC3)cc2s1)c1ccc(F)cc1` yielded an RP-LC retention time of 773 s.
`CCn1c(=O)sc2cc(S(=O)(=O)N3CCC(C(=O)N4CCC5(CC4)OCCO5)CC3)ccc21` showed an RP-LC retention time of 781 s.
In the case of `CCOc1ccc(CC(=O)N2CCN(c3ccc(-c4nc(C)cs4)cn3)CC2)cc1`, the RP-LC retention time is reported as 883 s.
`O=C(CC1CCN(C(=O)Nc2ccc(F)cc2F)CC1)N1CCCCC1` gave an RP-LC retention time of 722 s.
Work on `O=C(NCCC1=CCCCC1)c1nnc(-c2ccc(S(=O)(=O)N3CCCC3)cc2)o1` yielded an RP-LC retention time of 1050 s.
In the case of `Cc1cc(C(=O)NCCN2CCN(C(=O)c3cccs3)CC2)c(C)o1`, the RP-LC retention time is reported as 563 s.
`Cc1ccc(-n2c(=O)n(CC(=O)Nc3cccc(C)c3C)c3cccnc32)cc1` showed an RP-LC retention time of 907 s.
In the case of `CC1Cc2cc(-c3cc(CC(=O)NCc4ccco4)no3)ccc2O1` (stereo not given), the RP-LC retention time is reported as 616 s.
`CN1C(=O)CS(=O)C12CCN(C(=O)Nc1ccccc1)CC2` (stereo not given) gave an RP-LC retention time of 599 s.
With `O=C(Nc1nc(CC(=O)N2CCN(c3ccccc3O)CC2)cs1)c1cnccn1` the RP-LC retention time was 612 s.
In the case of `CC1CCCN(CCCNC(=O)c2nnc(-c3ccc(S(=O)(=O)N4CCCC4)cc3)o2)C1` (stereo not given), the RP-LC retention time is reported as 642 s.
For `CCCNC(=O)C1CCN(c2ccc(SCC(=O)Nc3ccc(Cl)cc3F)nn2)CC1`, the RP-LC retention time was 688 s.
Work on `COc1ccc(CSc2nccc3c2ccn3CC(=O)NCc2ccco2)cc1` yielded an RP-LC retention time of 686 s.
In the case of `Cc1nnc(-c2cn(CC(=O)NCCCc3ccccc3)c3ccccc23)o1`, the RP-LC retention time is reported as 827 s.
For `Cc1ccc(NC(=O)N2CCCC2c2nc(-c3cccc(F)c3)no2)c(C)c1` (stereo not given), the RP-LC retention time was 1030 s.
`O=C(CN1CCC(c2nc(-c3ccc(F)cc3)no2)CC1)N1CCN(c2ccccc2)CC1` showed an RP-LC retention time of 618 s.
Compound `COc1ccc(-c2nc(C3CC(=O)N(c4ccc(C)cc4)C3)no2)c(OC)c1` (stereo not given) has an RP-LC retention time of 939 s.
`O=C(CSCCc1ccccn1)Nc1c(F)c(F)c(F)c(F)c1F` showed an RP-LC retention time of 643 s.
With `Cc1ccc(CNC(=O)C2CCCN(c3nnc4ccc(Cl)cn34)C2)o1` (stereo not given) the RP-LC retention time was 740 s.
`COCc1nncn1C1CCN(S(=O)(=O)c2ccc(F)c(Cl)c2)CC1` gave an RP-LC retention time of 739 s.
In the case of `COc1ccc2c(c1)C1(CCN(C(=O)Nc3ccccc3)C1)C(=O)N2` (stereo not given), the RP-LC retention time is reported as 694 s.
In the case of `COc1ccc(-n2c(=O)n(C)c(=O)c3cc(C(=O)Nc4ccccc4OC)cnc32)cc1`, the RP-LC retention time is reported as 892 s.
Work on `CSc1ccc(-c2nc3ncccn3c2Nc2ccccc2)cc1` yielded an RP-LC retention time of 777 s.
Work on `CS(=O)(=O)N1CCN(C(=O)CCn2nnc3ccccc3c2=O)CC1` yielded an RP-LC retention time of 604 s.
In the case of `COc1cccc(CNC(=O)c2cc3ccncc3n2C)c1OC`, the RP-LC retention time is reported as 602 s.
For `CC(C)(C)NC(=O)NC1CCN(C(=O)C2CCCC2)C1` (stereo not given), the RP-LC retention time was 678 s.
`Cc1ccccc1Nc1c(-c2cc(Br)ccc2F)nc2cccc(C)n12` showed an RP-LC retention time of 814 s.
For `CC(C)NC(=O)c1ccc(-c2nc3cc(NS(=O)(=O)c4ccc(F)cc4F)ccc3n2C)cc1`, the RP-LC retention time was 697 s.
Compound `O=C(NCC(O)C1CCCCC1)c1cccc2ccccc12` (stereo not given) has an RP-LC retention time of 802 s.
In the case of `CCCSc1nnc(NC(=O)CCc2ccc(C)o2)s1`, the RP-LC retention time is reported as 892 s.
In the case of `CCOc1ccccc1C(=O)NCCc1csc(-c2cccnc2)n1`, the RP-LC retention time is reported as 668 s.
`CCc1cc(=O)n(CC(=O)Nc2cc(C)ccc2C)c(N2CCOCC2)n1` showed an RP-LC retention time of 747 s.
`CCN(CC)S(=O)(=O)c1ccc2c(c1)cc(C(=O)NCCCN1CCCC(C)C1)n2C` (stereo not given) showed an RP-LC retention time of 691 s.
In the case of `CCC(=O)NC1CCc2cccc(OC)c2C1` (stereo not given), the RP-LC retention time is reported as 821 s.
`O=C(O)c1cc(N2CCN(CC(=O)N3CCCCCC3)CC2)ccc1NC(=O)C1CC1` showed an RP-LC retention time of 615 s.
With `CCn1c(=O)c(N2CCCC(C(=O)NCc3cccc(Br)c3)C2)nc2ccccc21` (stereo not given) the RP-LC retention time was 1080 s.
Compound `O=C(NCc1ccncc1)C1CN(S(=O)(=O)C2CC2)CC12CCCCC2` (stereo not given) has an RP-LC retention time of 598 s.
For `Cc1cc(SCC(=O)Nc2ccc3c(c2)OCO3)nc(-c2cnccn2)n1`, the RP-LC retention time was 680 s.
Work on `O=C(c1cc(F)ccc1F)N1CCN(c2cc(-c3ccc(F)cc3)[nH]n2)CC1` yielded an RP-LC retention time of 807 s.
With `O=C(NCc1ccco1)c1c(O)c2cccnc2n(-c2cccc(F)c2)c1=O` the RP-LC retention time was 1070 s.
Compound `CC(C)CN1C(=O)c2cccn2CC1C(=O)NCC1CCCCC1` (stereo not given) has an RP-LC retention time of 828 s.
